Data reported in ChEMBL document CHEMBL1795255, “Discovery and optimization of potent and selective benzonaphthyridinone analogs as small molecule mTOR inhibitors with improved mouse microsome stability” (Bioorg Med Chem Lett, 2011).

How the values were obtained:
[1] = Inhibition of mTORC1
[2] = biological target: Serine/threonine-protein kinase mTOR (Mus musculus, UniProt Q9JLN9); assay: Inhibition of mTOR-dependent S6K phosphorylation at T389 residue in MEF cells; format: cell-based
[3] = Inhibition of PI3K-dependent Akt phosphorylation at T308 residue in human PC3 cells; format: cell-based; settings: PC-3
[4] = Metabolic stability in mouse microsomes in presence of NADPH; format: ADME, Microsome; settings: read-out: Stability
CYP3A4 = CYP3A4 (Homo sapiens, UniProt P08684); assay: Inhibition of CYP3A4 at 10 uM; format: ADME
CYP3A4, sequence (P08684 whole entry): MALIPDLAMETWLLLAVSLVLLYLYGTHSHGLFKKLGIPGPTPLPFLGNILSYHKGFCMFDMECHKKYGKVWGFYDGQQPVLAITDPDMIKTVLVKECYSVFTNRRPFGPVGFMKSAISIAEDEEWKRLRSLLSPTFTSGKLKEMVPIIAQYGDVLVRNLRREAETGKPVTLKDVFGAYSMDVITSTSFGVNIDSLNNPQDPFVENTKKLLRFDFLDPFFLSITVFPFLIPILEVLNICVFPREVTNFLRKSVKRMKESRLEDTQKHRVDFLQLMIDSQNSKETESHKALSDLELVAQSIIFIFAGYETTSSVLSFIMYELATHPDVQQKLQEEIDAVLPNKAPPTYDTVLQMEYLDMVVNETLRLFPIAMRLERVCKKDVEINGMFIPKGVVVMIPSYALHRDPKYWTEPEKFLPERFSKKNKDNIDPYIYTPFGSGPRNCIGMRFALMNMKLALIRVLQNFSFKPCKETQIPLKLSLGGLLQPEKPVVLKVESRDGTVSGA

[5] = (§1) Cmax in iv dosed mouse; format: ADME, organism-based; set-up: route intravenous; settings: in vivo
[6] = (§2) Cmax in po dosed mouse; format: ADME, organism-based; set-up: route oral; settings: in vivo
[7] = (§3) Tmax in po dosed mouse; format: ADME, organism-based; settings: in vivo
[8] = AUC (0 to infinity) in iv dosed mouse; format: ADME, organism-based; set-up: time infinity, route intravenous; settings: plasma
[9] = AUC (0 to infinity) in po dosed mouse; format: ADME, organism-based; set-up: route oral, time infinity; settings: plasma
[10] = Half life in iv dosed mouse; format: ADME, organism-based; settings: in vivo
[11] = Clearance in iv dosed mouse; format: ADME, organism-based; settings: in vivo
[12] = (§4) Volume of distribution at steady state in iv dosed mouse; format: ADME, organism-based; settings: in vivo, read-out: Vdss
[13] = Oral bioavailability in mouse; format: ADME, organism-based; settings: in vivo
Mus musculus [14] = assay: as §1; format: ADME, organism-based; set-up: route intravenous; settings: in vivo
Mus musculus [15] = assay: as §2; format: ADME, organism-based; set-up: route oral; settings: in vivo
Mus musculus [16] = assay: as §3; format: ADME, organism-based; settings: in vivo
Mus musculus [17] = assay: as §4; format: ADME, organism-based; settings: in vivo
[18] = biological target: T1, Serine/threonine-protein kinase mTOR (Homo sapiens, UniProt P42345); assay: Inhibition of mTOR
[19] = biological target: T1, Serine/threonine-protein kinase mTOR; assay: Inhibition of mTOR-dependent S6K phosphorylation at T389 residue in liver at 20 mg/kg after 6 hrs by in vivo pharmacodynamic study; format: organism-based; set-up: dose 20 mg/kg
[20] = biological target: T1, Serine/threonine-protein kinase mTOR; assay: Inhibition of mTOR-dependent AKT phosphorylation at S473 residue in lung at 20 mg/kg after 6 hrs by in vivo pharmacodynamic study; format: organism-based; set-up: dose 20 mg/kg
[21] = biological target: T1, Serine/threonine-protein kinase mTOR; assay: Inhibition of mTOR-dependent AKT phosphorylation at S473 residue in liver at 20 mg/kg after 6 hrs by in vivo pharmacodynamic study; format: organism-based; set-up: dose 20 mg/kg
[22] = biological target: T1, Serine/threonine-protein kinase mTOR; assay: Inhibition of mTOR-dependent S6K phosphorylation at T389 residue in lung at 20 mg/kg after 6 hrs by in vivo pharmacodynamic study; format: organism-based; set-up: dose 20 mg/kg
[23] = biological target: Phosphatidylinositol 4-kinase alpha (Homo sapiens, UniProt P42356); assay: Inhibition of PI4K alpha
[24] = biological target: Phosphatidylinositol 4-kinase beta (Homo sapiens, UniProt Q9UBF8); assay: Inhibition of PI4K beta
[25] = biological target: Phosphatidylinositol 4-phosphate 3-kinase C2 domain-containing subunit alpha (Homo sapiens, UniProt O00443); assay: Inhibition of PI3K C2alpha
Phosphatidylinositol 4-phosphate 3-kinase C2 domain-containing subunit alpha, sequence (O00443 whole entry, the tested form may be a part): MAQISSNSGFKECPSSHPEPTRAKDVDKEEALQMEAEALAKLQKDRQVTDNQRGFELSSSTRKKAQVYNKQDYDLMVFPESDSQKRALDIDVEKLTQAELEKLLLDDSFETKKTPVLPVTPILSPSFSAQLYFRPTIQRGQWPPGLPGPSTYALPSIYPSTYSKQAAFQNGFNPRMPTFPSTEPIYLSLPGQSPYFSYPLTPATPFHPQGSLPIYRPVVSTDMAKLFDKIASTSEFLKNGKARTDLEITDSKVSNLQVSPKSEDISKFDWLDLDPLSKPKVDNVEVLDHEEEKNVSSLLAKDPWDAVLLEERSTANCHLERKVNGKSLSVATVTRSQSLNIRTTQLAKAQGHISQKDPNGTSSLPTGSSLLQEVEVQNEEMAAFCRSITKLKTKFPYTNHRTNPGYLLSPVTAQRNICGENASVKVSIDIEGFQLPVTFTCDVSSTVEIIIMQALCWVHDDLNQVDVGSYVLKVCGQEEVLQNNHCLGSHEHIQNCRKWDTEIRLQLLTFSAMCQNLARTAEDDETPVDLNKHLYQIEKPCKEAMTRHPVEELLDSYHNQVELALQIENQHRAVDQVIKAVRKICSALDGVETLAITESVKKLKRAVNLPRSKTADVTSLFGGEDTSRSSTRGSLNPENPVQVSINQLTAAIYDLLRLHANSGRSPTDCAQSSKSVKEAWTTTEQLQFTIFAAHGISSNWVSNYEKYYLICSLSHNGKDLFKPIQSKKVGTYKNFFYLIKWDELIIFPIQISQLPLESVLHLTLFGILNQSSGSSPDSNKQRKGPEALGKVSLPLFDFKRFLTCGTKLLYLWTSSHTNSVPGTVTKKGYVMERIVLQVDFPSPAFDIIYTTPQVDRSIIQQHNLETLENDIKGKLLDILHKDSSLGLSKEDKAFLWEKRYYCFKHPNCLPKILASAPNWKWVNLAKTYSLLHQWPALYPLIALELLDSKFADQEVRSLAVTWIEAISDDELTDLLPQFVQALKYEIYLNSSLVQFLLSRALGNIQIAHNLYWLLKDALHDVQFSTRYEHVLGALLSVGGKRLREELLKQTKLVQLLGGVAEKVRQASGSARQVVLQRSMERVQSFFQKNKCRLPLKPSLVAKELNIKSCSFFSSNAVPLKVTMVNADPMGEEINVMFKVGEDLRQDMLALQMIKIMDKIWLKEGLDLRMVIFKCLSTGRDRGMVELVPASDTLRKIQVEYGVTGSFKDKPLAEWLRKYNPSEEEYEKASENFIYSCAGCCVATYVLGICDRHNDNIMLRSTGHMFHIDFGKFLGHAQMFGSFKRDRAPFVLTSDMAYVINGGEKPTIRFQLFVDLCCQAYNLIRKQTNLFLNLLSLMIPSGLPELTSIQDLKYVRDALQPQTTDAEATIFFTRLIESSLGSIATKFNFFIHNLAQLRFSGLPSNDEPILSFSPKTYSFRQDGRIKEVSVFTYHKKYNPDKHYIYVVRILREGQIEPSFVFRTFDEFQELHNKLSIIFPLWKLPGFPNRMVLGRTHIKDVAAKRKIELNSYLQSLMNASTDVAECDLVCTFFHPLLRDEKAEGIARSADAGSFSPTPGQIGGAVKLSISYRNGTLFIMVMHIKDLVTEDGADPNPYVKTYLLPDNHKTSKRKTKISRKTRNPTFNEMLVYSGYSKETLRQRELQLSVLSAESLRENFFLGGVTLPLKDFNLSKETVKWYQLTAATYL

[26] = biological target: Phosphatidylinositol 4-phosphate 3-kinase C2 domain-containing subunit beta (Homo sapiens, UniProt O00750); assay: Inhibition of PI3K C2beta
[27] = biological target: Phosphatidylinositol 3-kinase catalytic subunit type 3 (Homo sapiens, UniProt Q8NEB9); assay: Inhibition of human VPS34
Phosphatidylinositol 3-kinase catalytic subunit type 3, sequence (Q8NEB9 whole entry): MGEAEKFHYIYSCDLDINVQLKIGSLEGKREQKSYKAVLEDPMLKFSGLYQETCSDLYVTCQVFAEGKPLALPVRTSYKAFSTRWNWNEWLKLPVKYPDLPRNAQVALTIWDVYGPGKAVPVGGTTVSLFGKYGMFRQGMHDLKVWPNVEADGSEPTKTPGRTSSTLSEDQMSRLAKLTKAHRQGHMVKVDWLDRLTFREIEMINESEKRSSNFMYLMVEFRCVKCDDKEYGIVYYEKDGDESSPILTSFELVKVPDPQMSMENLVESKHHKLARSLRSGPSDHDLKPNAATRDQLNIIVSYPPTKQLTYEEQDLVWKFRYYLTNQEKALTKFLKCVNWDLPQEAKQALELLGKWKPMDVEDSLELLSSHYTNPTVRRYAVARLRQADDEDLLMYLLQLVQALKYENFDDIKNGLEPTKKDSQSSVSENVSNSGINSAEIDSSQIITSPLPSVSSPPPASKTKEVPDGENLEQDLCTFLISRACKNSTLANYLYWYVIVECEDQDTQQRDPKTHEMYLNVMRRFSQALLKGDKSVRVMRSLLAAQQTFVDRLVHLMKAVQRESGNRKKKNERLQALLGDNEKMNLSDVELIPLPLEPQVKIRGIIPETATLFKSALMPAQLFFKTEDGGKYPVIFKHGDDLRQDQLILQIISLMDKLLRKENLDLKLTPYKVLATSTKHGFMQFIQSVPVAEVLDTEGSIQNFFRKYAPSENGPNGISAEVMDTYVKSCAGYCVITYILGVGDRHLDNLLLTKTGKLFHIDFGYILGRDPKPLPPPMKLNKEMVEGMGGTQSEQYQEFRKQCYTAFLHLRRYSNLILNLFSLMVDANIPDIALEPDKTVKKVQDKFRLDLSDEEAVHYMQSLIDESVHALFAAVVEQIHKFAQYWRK

[28] = biological target: PI3-kinase p110-alpha/p85-alpha (Homo sapiens, UniProt P42336); assay: Inhibition of P110alpha/p85alpha; format: protein-complex assay
PI3-kinase p110-alpha/p85-alpha, sequence (P27986 whole entry): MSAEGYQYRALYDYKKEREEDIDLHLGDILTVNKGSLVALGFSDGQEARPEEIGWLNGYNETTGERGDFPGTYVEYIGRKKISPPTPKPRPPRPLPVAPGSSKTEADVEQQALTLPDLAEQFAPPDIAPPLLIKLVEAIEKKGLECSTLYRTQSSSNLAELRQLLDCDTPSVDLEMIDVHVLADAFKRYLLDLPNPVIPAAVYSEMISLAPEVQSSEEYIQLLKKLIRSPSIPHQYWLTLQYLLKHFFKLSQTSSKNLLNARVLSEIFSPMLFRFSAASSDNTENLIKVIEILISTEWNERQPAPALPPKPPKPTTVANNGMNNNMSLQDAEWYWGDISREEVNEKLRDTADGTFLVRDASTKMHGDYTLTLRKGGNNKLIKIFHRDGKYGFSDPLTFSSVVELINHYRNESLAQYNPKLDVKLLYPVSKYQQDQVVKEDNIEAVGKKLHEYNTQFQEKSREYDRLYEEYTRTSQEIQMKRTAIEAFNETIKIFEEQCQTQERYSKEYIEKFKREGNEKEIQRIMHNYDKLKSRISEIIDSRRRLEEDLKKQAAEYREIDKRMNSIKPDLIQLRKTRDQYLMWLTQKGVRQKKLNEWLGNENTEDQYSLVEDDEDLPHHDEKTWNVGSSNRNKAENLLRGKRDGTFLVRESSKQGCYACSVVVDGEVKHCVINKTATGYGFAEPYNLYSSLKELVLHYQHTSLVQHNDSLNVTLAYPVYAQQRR
PI3-kinase p110-alpha/p85-alpha, sequence (P42336 whole entry): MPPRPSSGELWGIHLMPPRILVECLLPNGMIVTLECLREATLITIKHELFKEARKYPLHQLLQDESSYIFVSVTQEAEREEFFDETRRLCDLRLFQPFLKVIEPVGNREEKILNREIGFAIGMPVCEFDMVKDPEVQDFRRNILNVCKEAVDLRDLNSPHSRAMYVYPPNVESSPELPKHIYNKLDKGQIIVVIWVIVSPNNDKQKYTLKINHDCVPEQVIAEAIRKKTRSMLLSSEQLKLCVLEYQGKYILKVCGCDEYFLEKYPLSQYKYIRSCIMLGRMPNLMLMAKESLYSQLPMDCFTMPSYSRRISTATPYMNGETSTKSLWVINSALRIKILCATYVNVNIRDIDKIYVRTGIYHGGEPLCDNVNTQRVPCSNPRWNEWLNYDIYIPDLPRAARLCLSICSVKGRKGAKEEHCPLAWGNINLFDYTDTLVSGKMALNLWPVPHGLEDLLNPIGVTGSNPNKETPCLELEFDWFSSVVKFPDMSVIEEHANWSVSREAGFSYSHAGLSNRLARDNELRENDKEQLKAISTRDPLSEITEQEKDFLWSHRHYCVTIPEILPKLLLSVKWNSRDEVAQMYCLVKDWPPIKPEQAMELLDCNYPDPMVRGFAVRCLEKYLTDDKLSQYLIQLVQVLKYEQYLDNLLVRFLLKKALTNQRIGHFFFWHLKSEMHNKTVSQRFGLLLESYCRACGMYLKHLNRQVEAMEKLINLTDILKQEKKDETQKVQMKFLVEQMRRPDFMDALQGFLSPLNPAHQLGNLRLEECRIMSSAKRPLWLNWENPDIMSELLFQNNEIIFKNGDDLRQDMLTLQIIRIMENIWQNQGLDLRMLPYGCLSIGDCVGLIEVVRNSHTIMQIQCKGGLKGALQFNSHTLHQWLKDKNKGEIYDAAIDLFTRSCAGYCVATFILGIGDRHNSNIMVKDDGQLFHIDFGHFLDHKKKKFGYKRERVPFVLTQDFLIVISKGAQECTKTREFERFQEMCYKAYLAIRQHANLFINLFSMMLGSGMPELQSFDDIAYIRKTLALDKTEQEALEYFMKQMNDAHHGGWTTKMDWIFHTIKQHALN

For `Cc1cc(-n2c(=O)ccc3cnc4ccc(-c5cn[nH]c5)cc4c32)ccc1-c1ccc(C(=O)NC2CCN(C)CC2)cc1`, the IC50 [1] was 38.1 nM, the EC50 [2] was 150 nM and the EC50 [3] was > 1250 nM.
With `Cc1cc(-n2c(=O)ccc3cnc4ccccc4c32)ccc1-c1ccc(C(=O)NC2CCN(C)CC2)cc1` the IC50 [1] was > 3000 nM, the EC50 [2] was > 1000 nM and the EC50 [3] was > 1250 nM.
With `Cc1cc(-n2c(=O)ccc3cnc4ccc(-c5cnc6[nH]ccc6c5)cc4c32)ccc1-c1ccc(C(=O)NC2CCN(C)CC2)cc1` the IC50 [1] was 18.9 nM, the EC50 [2] was 25 nM and the EC50 [3] was 1000 nM.
With `Cc1cc(-n2c(=O)ccc3cnc4ccc(-c5cnn(C)c5)cc4c32)ccc1-c1ccc(C(=O)NC2CCN(C)CC2)cc1` the IC50 [1] was 283 nM, the EC50 [2] was 150 nM and the EC50 [3] was > 1250 nM.
In the case of `CN1CCC(NC(=O)c2ccc(-c3ccc(-n4c(=O)ccc5cnc6ccc(-c7cn[nH]c7)cc6c54)cc3C(F)(F)F)cc2)CC1`, the IC50 [1] is reported as 14.1 nM, the EC50 [2] is reported as 10 nM and the EC50 [3] is reported as 1000 nM.
With `O=c1ccc2cnc3ccc(-c4cnc5ccccc5c4)cc3c2n1-c1ccc(-c2ccc(CO)cc2)c(C(F)(F)F)c1` the IC50 [1] was 17.3 nM, the EC50 [2] was 30 nM and the EC50 [3] was > 300 nM.
In the case of `CNC(=O)c1ccc(-c2ccc(-n3c(=O)ccc4cnc5ccc(-c6cnc7ccccc7c6)cc5c43)cc2C(F)(F)F)cc1`, the IC50 [1] is reported as 10.2 nM, the EC50 [2] is reported as 15 nM and the EC50 [3] is reported as > 300 nM.
In the case of `COC(=O)c1ccc(-c2ccc(-n3c(=O)ccc4cnc5ccc(-c6cnc7ccccc7c6)cc5c43)cc2C(F)(F)F)cc1`, the IC50 [1] is reported as 299 nM, the EC50 [2] is reported as 200 nM and the EC50 [3] is reported as > 300 nM.
Compound `Cc1cc(-n2c(=O)ccc3cnc4ccc(-c5cnc6ccccc6c5)cc4c32)ccc1-c1ccc(C(=O)NC2CCN(C)CC2)cc1` has an IC50 [1] of 14.5 nM, an EC50 [2] of 1 nM and an EC50 [3] of 1000 nM. It also gave a half-life [4] of 0.7 h, an inhibition at 10 µM (CYP3A4) of 34% and a Cmax [5] of 1050 ng/mL. For the same compound, the Cmax [6] was 115 ng/mL, the Tmax [7] was 1 h and the AUC(0-inf) [8] was 737 ng·h/mL. The AUC(0-inf) [9] was 391 ng·h/mL, the half-life [10] was 1.85 h and the clearance [11] was 22.6 mL/min/kg. It also gave a Vd [12] of 1.82 L/kg and a bioavailability [13] of 5.4%.
For `NC(=O)c1ccc(-c2ccc(-n3c(=O)ccc4cnc5ccc(-c6cnc7ccccc7c6)cc5c43)cc2C(F)(F)F)cc1`, the IC50 [1] was 56.3 nM, the EC50 [2] was 25 nM and the EC50 [3] was > 300 nM.
Compound `CCC(=O)N1CCN(c2ccc(-n3c(=O)ccc4cnc5ccc(-c6cnc7ccccc7c6)cc5c43)cc2C(F)(F)F)CC1` [TORIN1] has a Cmax (Mus musculus [14]) of 2757 ng/mL, a Cmax (Mus musculus [15]) of 223 ng/mL and a Tmax (Mus musculus [16]) of 0.25 h. It also gave an AUC(0-inf) [8] of 720 ng·h/mL, an AUC(0-inf) [9] of 396 ng·h/mL and a Vdss (Mus musculus [17]) of 0.59 L/kg.
In the case of `O=c1ccc2cnc3ccc(-c4cnc5ccccc5c4)cc3c2n1-c1ccc(-c2ccc(COC3CCCCO3)cc2)c(C(F)(F)F)c1` (stereo not drawn), the IC50 [1] is reported as 188 nM, the EC50 [2] is reported as 25 nM and the EC50 [3] is reported as > 300 nM.
With `O=C(O)c1ccc(-c2ccc(-n3c(=O)ccc4cnc5ccc(-c6cnc7ccccc7c6)cc5c43)cc2C(F)(F)F)cc1` the IC50 [1] was 22.9 nM, the EC50 [2] was 20 nM and the EC50 [3] was > 300 nM.
In the case of `Cc1cc(-n2c(=O)ccc3cnc4ccc(-c5ccc(N)nc5)cc4c32)ccc1-c1ccc(C(=O)NC2CCN(C)CC2)cc1`, the IC50 [1] is reported as 39.8 nM, the EC50 [2] is reported as 50 nM and the EC50 [3] is reported as > 1250 nM.
Work on `CN1CCC(NC(=O)c2ccc(-c3ccc(-n4c(=O)ccc5cnc6ccc(-c7cnc8ccccc8c7)cc6c54)cc3C(F)(F)F)cc2)CC1` yielded an IC50 [18] of 3.01 nM, an inhibition [19] of 80% and an inhibition [20] of 80%. For the same compound, the IC50 [1] was 21.7 nM, the EC50 [2] was 5 nM and the inhibition [21] was 80%. It also gave a half-life [4] of 0.767 h, an inhibition at 10 µM (CYP3A4) of 61% and an inhibition [22] of 80%. For the same compound, the Cmax [5] was 1410 ng/mL, the Cmax [6] was 191 ng/mL and the Tmax [7] was 4 h. For the same compound, the AUC(0-inf) [8] was 1390 ng·h/mL, the AUC(0-inf) [9] was 1410 ng·h/mL and the half-life [10] was 3.61 h. The clearance [11] was 11.9 mL/min/kg, the Vd [12] was 1.95 L/kg and the bioavailability [13] was 10.1%. For the same compound, the IC50 [23] was > 10000 nM, the IC50 [24] was 3440 nM and the IC50 [25] was 1110 nM. For the same compound, the IC50 [26] was 437 nM, the IC50 [27] was 170 nM and the IC50 [28] was 922 nM.
Compound `CN1CCC(NC(=O)c2ccc(-c3ccc(-n4c(=O)ccc5cnc6ccc(-c7cnc(N)nc7)cc6c54)cc3C(F)(F)F)cc2)CC1` has an IC50 [1] of 43.2 nM, an EC50 [2] of 10 nM and an EC50 [3] of 1000 nM.
